Earlier results, collected in patent US8367605B2, “Copolymer-1 improvements in compositions of copolymers” (Yeda Research and Development Co. Ltd., priority 1994, dated 2013).

How the values were obtained:
[1] = tested on: experimental autoimmune encephalomyelitis (EAE); details: Eur. J. Immunol. [1971]1:242; U.S. Pat. No. 3,849,550
[2] = tested on: patients with the exacerbating-remitting form of multiple sclerosis; details: daily injections; N. Engl. J. Med. [1987]317:408

In the case of copolymer-1, the “effect on EAE” value [1] is listed as “suppress EAE”, the “disability status versus control patients” value [2] is listed as “smaller increases in their disability status” and the “exacerbations versus control patients” value [2] is listed as “fewer exacerbations”.
